# Experiments:
# [1] = molecules of known Log(k′w) used for calibration; cited from earlier work
# HeLa cells [2] = test: Resazurin cell proliferation assay on HeLa cells; assay type: cell-based, human; conditions: 72 h incubation
# Excerpt: All new 16 BGC compounds were screened against HeLa cells (cervical adenocarcinoma) to assess their antiproliferative activity through a resazurin cell viability assay.^[ [49] ^] The dose‐response curves were then fitted by a 4‐parameter sigmoid function to extract the median effective concentrations (EC50) shown in Figure 7 .
# (§1) HeLa and MDA‐MB‐231 cells were cultivated in DMEM GlutaMax High Glucose supplemented with 10 vol% fetal bovine serum (FBS) and 1 vol% penicillin/streptomycin (50 U/mL and 50 μg/mL respectively). Huh‐7 cells were cultivated in MEM supplemented with 10 vol% FBS, GlutaMax (2 mM), sodium pyruvate (1 mM), nonessential amino acids mix (0.1 mM), and 1 vol% penicillin/streptomycin. MCF10A cells were cultivated in DMEM:F12 GlutaMax supplemented with 1 vol% penicillin/streptomycin, hEGF (20 ng/mL), hydrocortisone ([…]), cholera toxin (100 ng/mL), insulin (10 μg/mL), and 5 vol% horse serum. These media will be further referred as “Complete media.”
# (§2) Stock solutions of the gold complexes (20 mM) were prepared in DMSO and kept at −20 °C. Serial dilutions were performed to obtain a set of 8 concentrations with a 2‐fold geometric progression, and were stored at −20 °C as well.
# Cell proliferation assays were performed using resazurin as a viability indicator. Cells were seeded in 96‐well plates (2000 cells/100 μL per well) in the appropriate complete medium and allowed to grow for 24 h. Cells were then treated in triplicate with 8 different concentrations of the complexes, which were added as 100 μL of 2x dilution in culture medium containing no FBS (or containing 5% horse serum for MCF‐10 A cells), thus leading to a 5% concentration of serum in each well. After 72 h incubation, 110 μL of supernatant was removed from each well, and 10 μL of 500 μM resazurin solution (10x) in PBS were added prior to incubating the cells for 2 h. The fluorescence intensity of the reduction product resorufin was measured in each well (540 nm excitation, 590 nm reading), and cellular viability was computed as the fluorescence ratio between sample and DMSO control wells after blank subtraction. The EC50 value was computed by fitting the data with a 4‐parameter sigmoid σ through nonlinear least square regression, where the EC50 value is directly the c parameter. The regression was performed using curve_fit() function scipy.optimize module in python (scripts available^[ [60] ^]). σ(x,a,b,c,d)=d+a−d/1+(x/c)^b
# Huh‐7 = test: Resazurin cell proliferation assay on Huh-7 cells; assay type: cell-based, human; conditions: Huh‐7, 72 h incubation
# Excerpt: (§3) Considering the equivalent activities for neutral and cationic analogs, only cationic representatives of the BGC12, BGC18, and BGC19 couples were further screened on two other human cancer cell lines including hepatic carcinoma Huh‐7 and “triple negative” breast adenocarcinoma MDA‐MB‐231 and noncancerous epithelial breast cells MCF‐10 A (Table 1 ).
# as §1, §2
# (§4) Cell proliferation assays were performed using resazurin as a viability indicator. Cells were seeded in 96‐well plates (2000 cells/100 μL per well) in the appropriate complete medium and allowed to grow for 24 h. Cells were then treated in triplicate with 8 different concentrations of the complexes, which were added as 100 μL of 2x dilution in culture medium containing no FBS (or containing 5% horse serum for MCF‐10 A cells), thus leading to a 5% concentration of serum in each well. […] The fluorescence intensity of the reduction product resorufin was measured in each well (540 nm excitation, 590 nm reading), and cellular viability was computed as the fluorescence ratio between sample and DMSO control wells after blank subtraction. […]
# MDA‐MB‐231 = test: Resazurin cell proliferation assay on MDA-MB-231 cells; assay type: cell-based, human; conditions: MDA‐MB‐231, 72 h incubation
# Excerpt: as §3, §1, §2, §4
# MCF‐10 A = test: Resazurin cell proliferation assay on noncancerous MCF-10A cells; assay type: cell-based, human; conditions: MCF‐10 A noncancerous cells, 72 h incubation
# Excerpt: as §3, §1, §2, §4
# [3] = Solvolysis / stability in DMSO-d6 and DMSO-d6/D2O by 1H NMR; assay type: physicochemical; conditions: 24 h incubation at 37 °C in DMSO
# Procedure: Solvolysis Kinetics: 400 μL of freshly prepared gold complex solution in DMSO‐d6 (5 mM) was transferred to an NMR tube. Spectra were acquired straight away (t0 reference) prior to transferring the tubes to an oven set at 37 °C for 72 h. Spectra were then acquired periodically during incubation. The same procedure was repeated with addition of 100 μL of D2O to each tube.
# Solvolysis: A concentrated solution of gold complex (≈40 mM) was prepared in 1 mL DMSO‐d6 mixed with 250 μL of D2O and incubated at 37 °C for 24 h. The solution was then extracted 5 times with 3 mL DCM. The DCM phase was recovered and evaporated thoroughly, and the resulting residue was dissolved in MeCN‐d3 and analyzed by ^1H NMR.
# [4] = Reaction with chloride ions by 1H NMR; assay type: physicochemical; conditions: 1 eq. chloride source, DMSO‐d6/D2O 4/1
# Procedure: Reaction with Chloride Ions: 400 μL of freshly prepared gold complex solution in DMSO‐d6 (5 mM) was added to an NMR tube, followed by 4 μL of 0.5 M NaCl in D2O and 96 μL of D2O. Spectra were acquired straight away (t0 reference) prior to transferring the tubes to an oven set at 37 °C for 72 h. Spectra were then acquired periodically during incubation.
# [5] = Speciation in DMSO-d6/serum-free DMEM by 1H NMR; assay type: physicochemical; conditions: 3/1 DMSO‐d6/serum‐free DMEM, immediately after mixing (t < 5 min)
# Procedure: Speciation in DMEM: NMR spectra were recorded on a Bruker Avance II 300 spectrometer (7 T) operating at a ^1H Larmor frequency of 300.13 MHz with a 5 mm observe broadband probe (QNP) z‐axis (^31P/^19 F/^13C/^1H) at 27 °C.
# Solutions of the gold complexes (10 mM) were freshly prepared in DMSO‐d6. Samples were prepared by mixing 200 μL of complex solution with 100 μL (resp. 67 μL) of pure DMSO‐d6 and 100 μL (resp. 133 μL) of DMEM GlutaMax High glucose without FBS. ^1H NMR spectra were acquired immediately after mixing (t < 5 min) using a standard zg30 sequence to determine the resonant frequency of water in the tube. Further spectra were acquired using a cpmg‐esgp1d sequence (pulse program available^[ [60] ^]) which carrier frequency (O1P) was tuned to the water peak maximum to ensure optimal water suppression. The Hahn echo time (D20) was left null to acquire a spectrum without the use of T2‐gating. A particular attention was paid to the shimming process as poor shims result in a broader water signal thus leading to an inefficient water suppression.
# [6] = Log P determination by reverse-phase HPLC (OECD method); conditions: 25% water in acetonitrile (condition B)
# [7] = test system: mitochondrial membrane potential of HeLa cells; test: Mitochondrial membrane polarization JC-10 endpoint assay; assay type: cell-based, human; conditions: 10 μM, 1 h or 4 h
# Procedure: Several gold complexes were previously reported to accumulate in mitochondria^[ [50], [51] ^] or even to disrupt their membrane potential.^[ [27], [52], [53] ^] We therefore investigated the possible antimitochondrial activity of BGC19b, chosen as a representative of the most toxic compounds. Briefly, we incubated HeLa cells with BGC19b (1 h or 4 h) or CCCP (4 h) as positive control and monitored the mitochondrial membrane potential through a JC‐10 endpoint assay.
# HeLa cells were seeded in a 96‐well plate (2000 cells in 100 μL complete medium per well) and left to adhere. Cells were then treated in triplicate with gold complexes (addition of 100 μL of 2x complex solution in FBS‐free medium) 4 h and 1 h before reading the plate. A control triplicate was treated with CCCP (10 μM) and incubated for 4 h before reading. One hour before reading, 100 μL of supernatant was withdrawn from each well and replaced with JC‐10 in assay buffer A solution (Abcam, 1x, 50 μL). Cells were incubated with the marker for 1 h, and assay buffer B (50 μL) was added. Mitochondrial membrane potential was assessed by computing the ratio of fluorescence intensities between aggregated (λ ex = 540 nm, λ fluo = 590 nm) and nonaggregated JC‐10 (λ ex = 490 nm, λ fluo = 525 nm). […]
# HeLa cells [8] = test: Resazurin viability run in parallel to the JC-10 assay; assay type: cell-based, human; conditions: 10 μM, 1 h and 4 h
# [9] = test system: effector caspases 3 and 7 in HeLa cells; test: Caspase 3/7 activity and cellular morphology by time lapse videomicroscopy; assay type: cell-based, human; conditions: for Rate of apoptosis induction (caspase activation kinetics): BGC19b 1.7 μM, CCCP 10 μM
# Procedure: Apoptosis is a possible outcome of energy shortage in cells following mitochondrial depolarization. We thus monitored the activity of the effector caspases 3 and 7, as a readout of cell apoptosis. The overall cellular morphology was analyzed in parallel.
# HeLa cells were seeded in an 8‐well Ibidi slide (4000 cells in 500 μL complete medium per well) and allowed to grow for 24 h. The culture medium was changed to a fresh one (DMEM 5% FBS, 200 μL) containing SiR‐DNA dye (Spirochrome, 1 μM) and CellEvent Caspase 3/7 Green marker (ThermoFisher, 1 μM). […] Cells were monitored for 24 h (20 min step between images) by phase contrast and fluorescence microscopy (Cy5 and EGFP filters for SiR‐DNA and CellEvent Caspase 3/7 markers, respectively). Images were processed using Fiji, and cellular viabilities were extracted as Viability=1−NEGFP/NCy5 where N i denotes the number of cells counted in channel i. Cells were counted in EGFP and Cy5 channels using TrackMate (DoG detector + Simple LAP tracker).^[ [62] ^] The cellular morphology was also manually monitored using the phase contrast channel by tagging cells losing adhesion and displaying blebs.^[ [60] ^]
# [10] = parameters: method as in PMID 29277693; conditions: read-out: EC50 of CCCP; cited from earlier work
structure (smiles),measurement,setting,value
COc1ccccc1 [Anisole],log(k’w) of log P standard mix,[1],2.1
C[n+]1ccn2[c]1[Au-]1([c]3cc(C(C)(C)C)ccc3-c3ccc(C(C)(C)C)c[c]31)[n+]1ccccc1C2.F[P-](F)(F)(F)(F)F [BGC12b],EC50,HeLa cells [2],1800 ± 100 nM
same,EC50,Huh‐7,1800 ± 100 nM
same,EC50,MDA‐MB‐231,2900 ± 100 nM
same,EC50,MCF‐10 A,1200 ± 300 nM
same,Spectra in MeCN‐d3 after incubation in DMSO and extraction in DCM,[3],unchanged
same,Conversion of cationic to neutral form on addition of chloride,[4],converted back quantitatively and instantaneously
same,Species identified in culture medium mixture,[5],only the neutral complexes were identified
same,"Log P (cationic b, form)",[6],3.9
Cc1cccc2[n+]1[Au-]1([c]3cc(C(C)(C)C)ccc3-c3ccc(C(C)(C)C)c[c]31)[c]1n(cc[n+]1C)C2.F[P-](F)(F)(F)(F)F [BGC13b],"Log P (cationic b, form)",[6],4.4
Cc1cc[n+]2c(c1)Cn1cc[n+](C)[c]1[Au-]21[c]2cc(C(C)(C)C)ccc2-c2ccc(C(C)(C)C)c[c]21.F[P-](F)(F)(F)(F)F [BGC14b],"Log P (cationic b, form)",[6],4.8
COc1cc[n+]2c(c1)Cn1cc[n+](C)[c]1[Au-]21[c]2cc(C(C)(C)C)ccc2-c2ccc(C(C)(C)C)c[c]21.F[P-](F)(F)(F)(F)F [BGC15b],Conversion of cationic to neutral form on addition of chloride,[4],converted back quantitatively and instantaneously
same,"Log P (cationic b, form)",[6],4.2
C[n+]1ccn2[c]1[Au-]1([c]3cc(C(C)(C)C)ccc3-c3ccc(C(C)(C)C)c[c]31)[n+]1c(ccc3ccccc31)C2.F[P-](F)(F)(F)(F)F [BGC16b],EC50,HeLa cells [2],3200 ± 300 nM
same,"Log P (cationic b, form)",[6],4.5
C[n+]1ccn2[c]1[Au-]1([c]3cc(C(C)(C)C)ccc3-c3ccc(C(C)(C)C)c[c]31)[n+]1ccncc1C2.F[P-](F)(F)(F)(F)F [BGC17b],"Log P (cationic b, form)",[6],3.5
C[n+]1[c]2n(c3ccccc31)Cc1cccc[n+]1[Au-]21[c]2cc(C(C)(C)C)ccc2-c2ccc(C(C)(C)C)c[c]21.F[P-](F)(F)(F)(F)F [BGC18b],EC50,HeLa cells [2],2800 ± 700 nM
same,EC50,Huh‐7,2500 ± 400 nM
same,EC50,MDA‐MB‐231,4400 ± 800 nM
same,EC50,MCF‐10 A,2800 ± 500 nM
same,"Log P (cationic b, form)",[6],4.5
CC(C)(C)c1ccc2[c](c1)[Au-]1([c]3cc(C(C)(C)C)ccc3-2)[c]2n3ccccc3c[n+]2Cc2cccc[n+]21.F[P-](F)(F)(F)(F)F [BGC19b],EC50,HeLa cells [2],1800 ± 600 nM
same,EC50,Huh‐7,1400 ± 100 nM
same,EC50,MDA‐MB‐231,2000 ± 100 nM
same,EC50,MCF‐10 A,1600 ± 400 nM
same,Conversion of cationic to neutral form on addition of chloride,[4],converted back quantitatively and instantaneously
same,Species identified in culture medium mixture,[5],only the neutral complexes were identified
same,Mitochondrial membrane depolarization,[7],significant mitochondrial membrane depolarization
same,Change in cell viability during JC-10 assay,HeLa cells [8],no significant change in cell viability
same,"Induction period before adhesion loss, blebs and caspase 3/7 activation",[9]; 1.7 μM,around 4 h
same,Rate of apoptosis induction (caspase activation kinetics),[9],induces apoptosis much faster than CCCP
same,"Log P (cationic b, form)",[6],4.3
"N#CC(C#N)=NNc1cccc(Cl)c1 [CCCP, reference compound]",Rate of apoptosis induction (caspase activation kinetics),[9],occurred at a much slower rate compared to BGC19b
same,EC50,[10],10000 nM
c1ccc2ccccc2c1 [Naphtalene],log(k’w) of log P standard mix,[1],3.6
CCCCCCCCc1ccccc1 [Octylbenzene],log(k’w) of log P standard mix,[1],6.3

# Reference: PMC12276038, “Impact of Chelation on Reactivity and Cytotoxicity of Hemilabile Biphenyl Gold(III) N‐Heterocyclic Carbene Complexes” (Chemmedchem, 2025)
